Results reported in US20180250295A1, “Treatment of Motor and Movement Disorder Side Effects Associated with Parkinson's Disease Treatments” (Psychogenics, Inc., priority 2012, published 2018).

How the values were obtained:
5-HT1 = conditions: with respect to all receptors other than 5-HT1; cited from earlier work
[1] = system: Parkinson's patients with L-DOPA induced dyskinesias; assay: Safety and tolerability of eltoprazine in the levodopa challenge-dose study; type: in vivo, human; conditions: single oral doses of 2.5 mg, 5 mg, 7.5 mg
From the text: (§1) This example describes a multicenter, randomized, double-blind, placebo-controlled, dose finding study of oral eltoprazine in Parkinson's patients with L-DOPA induced dyskinesias, in a levodopa challenge-dose setting in Parkinson's Disease. A total of 22 patients participated in the study, out of which 18 patients fulfilled the protocol in terms of eligibility, interventions, and outcome assessment. […]

dopamine receptors = conditions: cited from earlier work
[2] = system: Parkinson's patients with L-DOPA induced dyskinesias; assay: Levodopa challenge-dose study of oral eltoprazine, dyskinesia ratings (CDRS, Rush DRS); type: in vivo, human; conditions: for levodopa-induced dyskinesia (LID) measured by the CDRS scale: compared to placebo
From the text: This example describes a multicenter, randomized, double-blind, placebo-controlled, dose finding study of oral eltoprazine in Parkinson's patients with L-DOPA induced dyskinesias, in a levodopa challenge-dose setting in Parkinson's Disease. A total of 22 patients participated in the study, out of which 18 patients fulfilled the protocol in terms of eligibility, interventions, and outcome assessment.
This study also assessed the safety and tolerability of eltoprazine in adults with Parkinson's Disease using the following measures: a) population mean values for the change in dyskinesia ratings between the placebo and screening baseline values and any of the eltoprazine dosages used, calculated as the peak-effect on CDRS of any study medication; b) population mean values for the change in dyskinesia ratings between the placebo and screening baseline values and any of the eltoprazine dosages used, calculated as the AuC on Rush DRS of any study medication; c) any changes in the UPDRS-III total score; d) any change in the diary data set, between the baseline and placebo and any of the three study medication tests; e) any deterioration of the HADS scores after study medication compared with placebo; f) any development of depression over the course of the study period, determined by the Montgomery Asberg Depression Rating Scale (MADRS) and clinical judgment; g) comparison between the effects on Rush Dyskinesia Rating Scale (DRS) and Clinical Dyskinesia Rating Scale (CDRS) Area under the Curve (AuC) and peak of dose effects for the three study medication dosages.
During the first visit, patients underwent screening for inclusion/exclusion criteria and safety assessments. Symptoms of parkinsonism, depression, and anxiety were assessed, and screening for significant L-DOPA dyskinesias were conducted using a challenge dose (150%) of L-DOPA. Subjects who were taking a prohibited medication were required to complete a washout period of appropriate length, as determined by the investigator. […]

5-HT1b receptor = 5-HT1b receptor (Homo sapiens, UniProt P28222); conditions: relative to 5-HT1a; cited from earlier work
5-HT1d receptor = conditions: compared with serotonin; cited from earlier work
5-HT1a receptor = molecular target: T1, 5-HT1a receptor (Homo sapiens, UniProt P08908); conditions: relative to 5-HT1b; cited from earlier work
T1 sequence (P08908 1-422): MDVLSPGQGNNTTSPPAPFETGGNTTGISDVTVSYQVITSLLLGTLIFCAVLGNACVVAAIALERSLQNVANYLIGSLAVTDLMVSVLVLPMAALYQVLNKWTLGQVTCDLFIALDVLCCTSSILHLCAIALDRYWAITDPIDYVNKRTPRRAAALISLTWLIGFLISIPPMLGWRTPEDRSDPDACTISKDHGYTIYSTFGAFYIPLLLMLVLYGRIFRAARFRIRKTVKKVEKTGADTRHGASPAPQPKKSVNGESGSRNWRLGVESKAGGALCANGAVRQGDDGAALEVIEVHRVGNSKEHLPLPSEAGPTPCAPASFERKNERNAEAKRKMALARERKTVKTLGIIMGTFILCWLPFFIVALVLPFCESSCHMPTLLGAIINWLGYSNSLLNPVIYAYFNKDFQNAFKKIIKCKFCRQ

[3] = system: Parkinson's patients with L-DOPA induced dyskinesias; assay: Levodopa challenge-dose study, UPDRS-III rating of parkinsonian symptoms (L-DOPA efficacy); type: in vivo, human
From the text: as §1
During each of five visits, and after a two-hour fast, each patient received a challenge dosage (150%—up to a maximum of 250 mg) of levodopa. […] The patients were periodically recorded for 180 minutes after treatment, and the videos were evaluated in a blinded manner. […]
Filming occurred 30 minutes prior to, and every 30 minutes up to 180 minutes after a challenge test of L-DOPA and study medication. […] Video taped records of each sequence were assessed by separate individual qualified raters at both of the two clinical centers.
Analyses were done on both the intention-to-treat (ITT) and per protocol (PP) population, if applicable. The change between test sessions of the highest observed Unified Parkinson's Disease Rating Scale-III (UPDRS) within each session will be calculated between the randomised placebo test session and each active test session and will be analysed with Wilcoxon Signed Rank test on the ITT population.

Sequence of 5-HT1b receptor (P28222 whole entry): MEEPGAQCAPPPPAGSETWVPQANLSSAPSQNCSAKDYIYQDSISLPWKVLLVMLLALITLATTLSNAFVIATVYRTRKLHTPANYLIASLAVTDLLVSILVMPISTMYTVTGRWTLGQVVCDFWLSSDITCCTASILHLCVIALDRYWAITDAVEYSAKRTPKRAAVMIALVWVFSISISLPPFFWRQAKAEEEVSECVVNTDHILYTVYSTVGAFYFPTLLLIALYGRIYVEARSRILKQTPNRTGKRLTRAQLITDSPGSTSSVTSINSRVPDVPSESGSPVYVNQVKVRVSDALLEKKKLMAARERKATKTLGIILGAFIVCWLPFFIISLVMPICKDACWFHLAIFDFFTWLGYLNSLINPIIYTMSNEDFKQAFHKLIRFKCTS

c1cc2c(c(N3CCNCC3)c1)OCCO2 [eltoprazine, 1-(2,3-dihydro-1,4-benzodioxanyl-5-yl) piperazine]
binding selectivity (5-HT1): selective 5-HT1 ligand
serious adverse events [1]: no serious adverse events
tolerability [1]: well tolerated
affinity for dopamine receptors (dopamine receptors): no relevant affinity for dopamine receptors
LID as measured by the Rush Scale AUC ([2]; 5 mg single oral dose): reduced LID in PD patients statistically significantly
levodopa-induced dyskinesia (LID) measured by the CDRS scale ([2]; 5 mg single oral dose, p=0.0007, L-DOPA challenge dose 150%): statistically significantly reduced LID
levodopa-induced dyskinesia (LID) measured by the CDRS scale ([2]; 7.5 mg single oral dose, p=0.0467, L-DOPA challenge dose 150%): statistically significantly reduced LID
agonism and affinity at the 5-HT1b receptor (5-HT1b receptor): mixed 5-HT1a/5-HT1b receptor agonist with roughly equipotent affinity
affinity for the 5-HT1d receptor (5-HT1d receptor): lower affinity for the 5-HT1d receptor
agonism and affinity at the 5-HT1a receptor (5-HT1a receptor): mixed 5-HT1a/5-HT1b receptor agonist with roughly equipotent affinity
L-DOPA efficacy as measured by the UPDRS score ([3]; 5 mg and 7.5 mg doses): did not affect L-DOPA efficacy
change in UPDRS-III of parkinsonian symptoms after eltoprazine administration ([3]; FIG. 2): no significant change
